Here are results for 15 compounds from ChEMBL document CHEMBL3588815, “Distinct Temporal Fingerprint for Cyclic Adenosine Monophosphate (cAMP) Signaling of Indole-2-carboxamides as Allosteric Modulators of the Cannabinoid Receptors” (J Med Chem, 2015).

Calls of active or inactive are those of the source. The rule behind the calls is not given here.

The target in data set [1] is T1, Cannabinoid receptor 1 (Homo sapiens, UniProt P21554). As to the kind of experiment: Activity at hemagglutinin-tagged human CB1 receptor expressed in HEK293 cells assessed as effect on forskolin-induced cAMP accumulation in presence of CP55,940 by cAMP BRET assay. Type of data set: functional, cell-based. In general terms: cAMP levels reflect the balance of adenylyl cyclase and phosphodiesterase activity.
T1 sequence (P21554 whole entry): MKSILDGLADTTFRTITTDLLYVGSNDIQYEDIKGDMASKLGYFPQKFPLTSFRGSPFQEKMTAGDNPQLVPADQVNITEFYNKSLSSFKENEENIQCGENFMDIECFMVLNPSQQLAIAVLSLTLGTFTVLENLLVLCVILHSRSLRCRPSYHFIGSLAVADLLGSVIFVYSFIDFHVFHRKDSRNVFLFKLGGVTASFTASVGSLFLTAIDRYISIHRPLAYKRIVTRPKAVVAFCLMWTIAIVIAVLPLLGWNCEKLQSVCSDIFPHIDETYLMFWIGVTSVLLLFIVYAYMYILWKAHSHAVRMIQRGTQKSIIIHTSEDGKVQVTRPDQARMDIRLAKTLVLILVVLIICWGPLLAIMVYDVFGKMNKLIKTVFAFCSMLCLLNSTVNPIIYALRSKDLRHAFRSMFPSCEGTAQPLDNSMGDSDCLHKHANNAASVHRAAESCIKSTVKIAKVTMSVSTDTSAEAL

Data set [2] has as its target T1, Cannabinoid receptor 1. The data set can be described thus: Activity at hemagglutinin-tagged human CB1 receptor expressed in HEK293 cells assessed as effect on forskolin-induced cAMP accumulation after 5 mins in presence of CP55,940 by cAMP BRET assay. Type of data set: functional, cell-based.
The target of data set [3] is T1, Cannabinoid receptor 1. The data set can be described thus: Activity at hemagglutinin-tagged human CB1 receptor expressed in HEK293 cells assessed as effect on forskolin-induced cAMP accumulation after 10 mins in presence of CP55,940 by cAMP BRET assay. The data set is classed as functional, cell-based.
For data set [4], the target named is T1, Cannabinoid receptor 1. The data set can be described thus: Activity at hemagglutinin-tagged human CB1 receptor expressed in HEK293 cells assessed as effect on forskolin-induced cAMP accumulation after 15 mins in presence of CP55,940 by cAMP BRET assay. The data set is classed as functional, cell-based.
In data set [5] the target is T1, Cannabinoid receptor 1. As to the kind of experiment: Inverse agonist activity at hemagglutinin-tagged human CB1 receptor expressed in HEK293 cells assessed as effect on forskolin-induced cAMP accumulation after 5 to 15 mins in presence of CP55,940 by cAMP BRET assay. The data set is classed as functional, cell-based.
Data set [6] concerns the target T1, Cannabinoid receptor 1. The data set can be described thus: Activity at human CB1 receptor expressed in AtT20 cells assessed as effect on 1 uM CP55,940-induced peak hyperpolarization up to 10 uM by membrane potential assay. The data set is classed as cell-based.
In data set [7] the target is T1, Cannabinoid receptor 1. As to the kind of experiment: Activity at human CB1 receptor expressed in AtT20 cells assessed as increase in rate of repolarization at 0.1 to 10 uM in presence of 1 uM CP55,940 by membrane potential assay. Type of data set: cell-based.
For data set [8], the target named is T1, Cannabinoid receptor 1. As to the kind of experiment: Allosteric modulator activity at hemagglutinin-tagged human CB1 receptor expressed in HEK293 cells assessed as effect on CP55,940-induced inhibition of forskolin-induced cAMP accumulation by kinetic cAMP assay. Type of data set: functional, cell-based.
The target in data set [9] is T1, Cannabinoid receptor 1. The data set can be described thus: Allosteric agonist activity at hemagglutinin-tagged human CB1 receptor expressed in HEK293 cells assessed as effect on forskolin-induced cAMP accumulation at 10 uM by kinetic cAMP assay. The data set is classed as functional, cell-based.
The target in data set [10] is T2, Cannabinoid receptor 2 (Homo sapiens, UniProt P34972). The data set can be described thus: Allosteric modulator activity at hemagglutinin-tagged human CB2 receptor expressed in Flp-In-293 cells assessed as effect on CP55,940-induced inhibition of forskolin-induced cAMP accumulation by kinetic cAMP assay. Type of data set: functional, cell-based.
T2 sequence (P34972 whole entry): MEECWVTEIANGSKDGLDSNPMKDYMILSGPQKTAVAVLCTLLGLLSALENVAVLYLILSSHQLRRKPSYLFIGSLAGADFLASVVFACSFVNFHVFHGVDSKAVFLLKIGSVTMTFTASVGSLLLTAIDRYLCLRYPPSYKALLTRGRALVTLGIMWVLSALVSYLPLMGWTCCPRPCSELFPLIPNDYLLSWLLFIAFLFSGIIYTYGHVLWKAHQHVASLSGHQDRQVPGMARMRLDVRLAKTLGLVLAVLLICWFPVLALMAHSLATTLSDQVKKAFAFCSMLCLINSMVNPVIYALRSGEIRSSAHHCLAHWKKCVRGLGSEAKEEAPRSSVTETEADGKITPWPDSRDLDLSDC
Data set [11] addresses T2, Cannabinoid receptor 2. The data set can be described thus: Allosteric agonist activity at hemagglutinin-tagged human CB2 receptor expressed in HEK293 cells assessed as effect on forskolin-induced cAMP accumulation at 10 uM by kinetic cAMP assay. The data set is classed as functional, cell-based.
Data set [12] deals with T1, Cannabinoid receptor 1. The data set can be described thus: Slow antagonist/Inverse agonist activity at hemagglutinin-tagged human CB1 receptor expressed in HEK293 cells assessed as reversal of 1 uM CP55,940-induced inhibition of 5 uM forskolin-induced cAMP accumulation by kinetic cAMP assay. Type of data set: functional, cell-based.
Data set [13] deals with T1, Cannabinoid receptor 1. As to the kind of experiment: Inverse agonist activity at hemagglutinin-tagged human CB1 receptor expressed in HEK293 cells assessed as increase in forskolin-induced cAMP accumulation in absence of CP55,940 at 10 uM and 31.6 uM by cAMP BRET assay. Type of data set: functional, cell-based.
The target in data set [14] is T2, Cannabinoid receptor 2. As to the kind of experiment: Antagonist activity against hemagglutinin-tagged human CB2 receptor expressed in HEK293 cells assessed as suppression of CP55,940-induced inhibition of forskolin-induced cAMP accumulation by cAMP BRET assay. Type of data set: functional, cell-based.
The target in data set [15] is T1, Cannabinoid receptor 1. As to the kind of experiment: Inverse agonist activity at hemagglutinin-tagged human CB1 receptor expressed in HEK293 cells assessed as increase in forskolin-induced cAMP accumulation in absence of CP55,940 at 31.6 uM by cAMP BRET assay. The data set is classed as functional, cell-based.
Data set [16] has as its target T2, Cannabinoid receptor 2. As to the kind of experiment: Activity at hemagglutinin-tagged human CB2 receptor expressed in HEK293 cells assessed as increase in forskolin-induced cAMP accumulation in absence of CP55,940 by cAMP BRET assay. The data set is classed as functional, cell-based.
The target of data set [17] is T2, Cannabinoid receptor 2. The data set can be described thus: Activity at hemagglutinin-tagged human CB2 receptor expressed in HEK293 cells assessed as inhibition of forskolin-induced cAMP accumulation in absence of CP55,940 by cAMP BRET assay. Type of data set: functional, cell-based.
A further data set relates to HEK293. The data set can be described thus: Reduction in cAMP accumulation in HEK293 cells by kinetic cAMP assay. The data set is classed as ADME, cell-based. The note with it: human.

The term EC50 denotes the concentration giving half of the maximal effect.

Take `CCc1c(C(=O)NCCc2ccc(C)cc2)[nH]c2ccc(Cl)cc12`: the EC50 on Cannabinoid receptor 1 [1] is 790 nM; on Cannabinoid receptor 1 [2], 1010 nM; on Cannabinoid receptor 1 [3], 600 nM; on Cannabinoid receptor 1 [4], 470 nM. In addition, the outcome on Cannabinoid receptor 1 [5], at Cannabinoid receptor 1 [7] and at Cannabinoid receptor 1 [8] was Active. Moreover, the result on Cannabinoid receptor 1 [6], on Cannabinoid receptor 1 [9], on Cannabinoid receptor 2 [10] and at Cannabinoid receptor 2 [11] was inactive.

Turning to `O=C(NCCc1ccc([N+](=O)[O-])cc1)c1cc2cc(Cl)ccc2[nH]1`, at Cannabinoid receptor 1 [8], the result was Active. Further, the result on Cannabinoid receptor 1 [9], on Cannabinoid receptor 2 [10] and at Cannabinoid receptor 2 [11] was inactive.

Turning to `CCc1c(C(=O)NCCc2ccc([N+](=O)[O-])cc2)[nH]c2ccc(Cl)cc12`, the inhibition entry on Cannabinoid receptor 1 [12] and on Cannabinoid receptor 2 [14] was “Active” in each case. The concentration for a half-maximal effect (EC50) at Cannabinoid receptor 1 [1] stood at 1140 nM; at Cannabinoid receptor 1 [2], 3590 nM; on Cannabinoid receptor 1 [3], 660 nM; on Cannabinoid receptor 1 [4] it was 440 nM. The result on Cannabinoid receptor 1 [5], at Cannabinoid receptor 1 [13], on Cannabinoid receptor 1 [8], at Cannabinoid receptor 1 [9] and at Cannabinoid receptor 2 [10] was Active. Also, the result at Cannabinoid receptor 2 [11] was inactive.

For `O=C(NCCc1ccc(Cl)cc1)c1cc2cc(Cl)ccc2[nH]1`, the result on Cannabinoid receptor 1 [8], at Cannabinoid receptor 1 [9], on Cannabinoid receptor 2 [10] and on Cannabinoid receptor 2 [11] was inactive.

`CCc1c(C(=O)NCCc2ccc(Cl)cc2)[nH]c2ccc(Cl)cc12`: the EC50 worked out at 3420 nM on Cannabinoid receptor 1 [1], 8180 nM on Cannabinoid receptor 1 [2], 1840 nM on Cannabinoid receptor 1 [3] and 20000 nM at Cannabinoid receptor 1 [4]. Also, the result at Cannabinoid receptor 1 [5], at Cannabinoid receptor 1 [7] and at Cannabinoid receptor 1 [8] was Active. In addition, the outcome on Cannabinoid receptor 1 [6], at Cannabinoid receptor 1 [9], at Cannabinoid receptor 2 [10] and at Cannabinoid receptor 2 [11] was inactive.

For `CCc1c(C(=O)NCCc2ccc(N3CCCCC3)cc2)[nH]c2ccccc12`, the EC50 on Cannabinoid receptor 1 [1] worked out at 4010 nM; at Cannabinoid receptor 1 [2], 6840 nM; at Cannabinoid receptor 1 [3], 2990 nM; at Cannabinoid receptor 1 [4], 3550 nM. Moreover, the result on Cannabinoid receptor 1 [5], on Cannabinoid receptor 1 [7], at Cannabinoid receptor 1 [15], on Cannabinoid receptor 2 [16], at Cannabinoid receptor 1 [8] and at Cannabinoid receptor 1 [9] was Active. In addition, the outcome at Cannabinoid receptor 2 [11] was Active. Further, the outcome on Cannabinoid receptor 1 [6] and at Cannabinoid receptor 2 [10] was inactive.

Regarding `CC(O)c1c(C(=O)NCCc2ccc(N3CCCCC3)cc2)[nH]c2ccc(Cl)cc12` (centres undefined), the EC50 on Cannabinoid receptor 1 [1] was 2660 nM; at Cannabinoid receptor 1 [2] it was 13400 nM; on Cannabinoid receptor 1 [3], 2970 nM; on Cannabinoid receptor 1 [4], 1510 nM. The result on Cannabinoid receptor 1 [5], on Cannabinoid receptor 1 [13], on Cannabinoid receptor 1 [8] and on Cannabinoid receptor 1 [9] was Active. Besides, the outcome on Cannabinoid receptor 2 [10] and on Cannabinoid receptor 2 [11] was inactive.

Turning to `CCc1c(C(=O)NCCc2ccc(N3CCCCC3)cc2)[nH]c2ccc(Cl)cc12`, the 50% effective concentration (EC50) on Cannabinoid receptor 1 [1] was 2240 nM; on Cannabinoid receptor 1 [2], 10600 nM; on Cannabinoid receptor 1 [3], 2090 nM; on Cannabinoid receptor 1 [4], 640 nM. The result at Cannabinoid receptor 1 [5], on Cannabinoid receptor 1 [7], at Cannabinoid receptor 1 [13], on Cannabinoid receptor 1 [8] and on Cannabinoid receptor 1 [9] was Active. The result on Cannabinoid receptor 1 [6], at Cannabinoid receptor 2 [10] and at Cannabinoid receptor 2 [11] was inactive.

For the compound `CCc1c(C(=O)NCCc2ccc(N(C)C)cc2)[nH]c2ccc(Cl)cc12`, the inhibition result on Cannabinoid receptor 1 [12] is “Active”. For the same compound, the EC50 was 600 nM at Cannabinoid receptor 1 [1], 3430 nM on Cannabinoid receptor 1 [2], 430 nM on Cannabinoid receptor 1 [3] and 210 nM on Cannabinoid receptor 1 [4]. The result at Cannabinoid receptor 1 [5], on Cannabinoid receptor 1 [13], on Cannabinoid receptor 1 [8] and on Cannabinoid receptor 1 [9] was Active. The outcome on Cannabinoid receptor 2 [10] and on Cannabinoid receptor 2 [11] was inactive.

Turning to `O=C(NCCc1ccc(N2CCCCC2)cc1)c1cc2cc(Cl)ccc2[nH]1`, the outcome at Cannabinoid receptor 1 [8], on Cannabinoid receptor 1 [9], on Cannabinoid receptor 2 [10] and at Cannabinoid receptor 2 [11] was inactive.

Consider `CCc1c(C(=O)OCCc2ccc(N3CCCCC3)cc2)[nH]c2ccc(Cl)cc12`, for which the concentration giving a half-maximal response (EC50) at Cannabinoid receptor 2 [17] stood at 130 nM. The result at Cannabinoid receptor 1 [8], on Cannabinoid receptor 1 [9] and on Cannabinoid receptor 2 [10] was inactive. Moreover, the outcome at Cannabinoid receptor 2 [11] was Active.

Take `CCc1c(C(=O)NCCc2ccc(N3CCCC3)cc2)[nH]c2ccc(Cl)cc12`: the inhibition result at Cannabinoid receptor 1 [12] was “Active”. Besides, the result on Cannabinoid receptor 1 [8], on Cannabinoid receptor 1 [9], at Cannabinoid receptor 2 [10] and on Cannabinoid receptor 2 [11] was inactive.

On to `CCc1c(C(=O)NCCc2ccc(N)cc2)[nH]c2ccc(Cl)cc12`, for which, at Cannabinoid receptor 1 [8], the result was inactive. Also, the outcome on Cannabinoid receptor 1 [9], at Cannabinoid receptor 2 [10] and at Cannabinoid receptor 2 [11] was Active. Also, in the data set with HEK293, the Activity result is listed as “Toxic”.

Take `CCc1c(C(=O)NCCc2ccc(F)cc2)[nH]c2ccc(Cl)cc12`: the 50% effective concentration (EC50) at Cannabinoid receptor 1 [1] is 4990 nM; on Cannabinoid receptor 1 [2] it was 7370 nM; at Cannabinoid receptor 1 [3], 4580 nM; on Cannabinoid receptor 1 [4] it was 8960 nM. The result on Cannabinoid receptor 1 [5] and on Cannabinoid receptor 1 [8] was Active. Moreover, the result on Cannabinoid receptor 1 [9], at Cannabinoid receptor 2 [10] and at Cannabinoid receptor 2 [11] was inactive.

With `CCc1c(C(=O)OCCc2ccc(NC)cc2)[nH]c2ccc(Cl)cc12`, the half-maximal effective concentration (EC50) at Cannabinoid receptor 1 [1] (hek293), at Cannabinoid receptor 1 [2], at Cannabinoid receptor 1 [3] (hek293) and at Cannabinoid receptor 1 [4] was < 10000 nM in each case. The result on Cannabinoid receptor 1 [8] was Active. In addition, the outcome on Cannabinoid receptor 1 [9], at Cannabinoid receptor 2 [10] and at Cannabinoid receptor 2 [11] was inactive.
